Data from patent publication US11186577B2, “Vasopressin receptor antagonists and products and methods related thereto” (BlackThorn Therapeutics, Inc., priority 2017, dated 2021).

Key:
[1] = target: human Arginine Vasopressin Receptor 1a (AVPR1a) (Homo sapiens (Human), UniProt P37288); assay: Vasopressin V1A receptor antagonist assay (AVP-evoked calcium, FLIPR, CHO-AVPR1a cells); assay type: cell-based; settings: read-out: V1a IC50
Method in brief: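 Antagonism measured as reduction of AVP (EC80, set each assay day) calcium response on FLIPR in dye-loaded CHO-AVPR1a cells. Compounds, 3 μM top in 10-point 1:3 dilution, in duplicate, added 15 min before agonist at 37° C.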

[2] = target: human Oxytocin Receptor (hOTR) (Homo sapiens (Human), UniProt P30559); assay: Oxytocin receptor antagonist assay (oxytocin-evoked calcium, FLIPR, CHEM-1-hOTR cells); assay type: cell-based; settings: read-out: OT IC50
Sequence of human Oxytocin Receptor (hOTR) (P30559 whole entry): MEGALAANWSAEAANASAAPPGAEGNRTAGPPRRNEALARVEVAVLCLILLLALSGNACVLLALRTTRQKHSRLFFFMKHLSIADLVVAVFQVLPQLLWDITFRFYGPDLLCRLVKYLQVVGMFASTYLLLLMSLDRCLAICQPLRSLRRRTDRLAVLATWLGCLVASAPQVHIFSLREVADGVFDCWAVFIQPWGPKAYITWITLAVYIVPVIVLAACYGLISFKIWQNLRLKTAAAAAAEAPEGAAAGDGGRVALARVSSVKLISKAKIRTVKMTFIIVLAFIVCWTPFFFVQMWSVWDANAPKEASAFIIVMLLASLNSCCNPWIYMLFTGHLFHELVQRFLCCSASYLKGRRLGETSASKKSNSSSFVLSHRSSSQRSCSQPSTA
Method in brief: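 Oxytocin-evoked intracellular calcium rise measured by FLIPR^TETRA fluorescence (Calcium-6 dye, 3 min read) in CHEM-1-hOTR cells. Test compounds, 10-point 1:3 dilutions, were added 15 min at 37 °C before an EC80 oxytocin challenge (EC80 set each assay day); buffer HBSS with 20 mM HEPES.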

[3] = tested on: MDR1 (P-glycoprotein); assay: MDR1-MDCK effective efflux assay (Transwell, 10 μM, 1 hour), MDR1-MDCK cells; assay type: in vitro ADME; settings: dog, MDCK-MDR1, pH 7.4, Papp AB MDR1
Procedure: (§1) The MDR1-MDCK effective efflux assay was performed as described in the BioFocus Standard Operating Procedure, ADME-SOP-56. Both wild-type (WT) and MDR1-MDCK cells (Solvo Biotechnology) were seeded onto 24-well Transwell plates at 2.35×10^5 cells per well and used in confluent monolayers after a 3 day culture at 37° C. under 5% CO2. For both cell types, test and control compounds (propranolol, vinblastine) were added (10 μM, 0.1% DMSO final, n=2) to donor compartments of the Transwell plate assembly in assay buffer (Hanks balanced salt solution supplemented with 25 mM HEPES, adjusted to pH 7.4) for both apical to basolateral (A>B) and basolateral to apical (B>A) measurements. Incubations were performed at 37° C., with samples removed from both donor and acceptor chambers at T=0 and 1 hour and compound analysed by mass spectrometry (LC-MS/MS) including an analytical internal standard.
(§2) Where V is the volume of each Transwell compartment (apical 125 basolateral 600 and concentrations are the relative MS responses for compound (normalized to internal standard) in the donor chamber before incubation and acceptor chamber at the end of the incubation. Area=area of cells exposed for drug transfer (0.33 cm2).
(§3) Efflux ratios (Papp B>A/Papp A>B) were calculated for each compound from the mean Papp values in each direction for both wild-type and MDR1-MDCK cells.
(§4) In order to confirm the involvement of MDR1 in any efflux seen, an “effective efflux ratio” (EER) was calculated by comparing compound efflux ratios (ER) in the two cell types, i.e. EER=ER(MDR1−MDCK)/ER(wild-type MDCK)
(§5) This ratio illustrates the effect of the over-expressed MDR1 normalised for the background movement of compound through the wild-type cells.
(§6) Lucifer Yellow (LY) was added to the apical buffer in all wells to assess viability of the cell layer. Compound recovery from the wells was determined from MS responses (normalized to internal standard) in donor and acceptor chambers at the end of incubation compared to response in the donor chamber pre-incubation.

[4] = tested on: MDR1-MDCK cells; assay: as above; assay type: in vitro ADME; settings: MDCK-MDR1
Procedure: as §1, §2, §3, §4, §5, §6

[5] = MDR1-MDCK effective efflux assay (Transwell, 10 μM, 1 hour), wild-type MDCK cells; assay type: in vitro ADME; settings: dog, MDCK, pH 7.4, Papp AB WT
Procedure: as §1, §2, §3, §4, §5, §6

[6] = tested on: wild-type (WT) MDCK cells; assay: as above; assay type: in vitro ADME; settings: MDCK
Procedure: as §1, §2, §3, §4, §5, §6

[7] = tested on: MDR1 (P-gp); assay: in vitro; settings: dog, MDCK-MDR1

Sequence of human Arginine Vasopressin Receptor 1a (AVPR1a) (P37288 whole entry): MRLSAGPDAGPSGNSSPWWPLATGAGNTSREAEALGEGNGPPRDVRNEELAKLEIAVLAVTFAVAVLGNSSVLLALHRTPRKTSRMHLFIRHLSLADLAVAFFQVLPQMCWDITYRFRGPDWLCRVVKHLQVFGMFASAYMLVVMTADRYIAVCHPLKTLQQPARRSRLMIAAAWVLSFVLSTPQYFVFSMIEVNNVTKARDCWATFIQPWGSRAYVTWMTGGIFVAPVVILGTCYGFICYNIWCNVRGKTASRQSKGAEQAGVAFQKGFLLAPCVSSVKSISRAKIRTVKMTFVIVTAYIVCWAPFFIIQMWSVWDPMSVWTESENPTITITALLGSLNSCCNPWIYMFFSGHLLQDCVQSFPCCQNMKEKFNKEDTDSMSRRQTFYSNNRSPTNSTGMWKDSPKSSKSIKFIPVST

CCC(=O)N1Cc2cc(Cl)ccc2-n2c(nnc2C2CC3(C2)CN(c2cnccn2)C3)C1 [compound 110]
IC50 [1]: < 100 nM
IC50 [2]: > 1000 nM
Papp A→B at 1 h, 10 μM [3]: < 7 ×10⁻⁶ cm/s
MDR1 EER [4]: +
MDR1 ER [4]: +
Papp A→B at 1 h, 10 μM [5]: 10 to 20 ×10⁻⁶ cm/s
WT ER [6]: +

O=C(N1Cc2cc(Cl)ccc2-n2c(nnc2C2CC3(C2)CN(c2ccc(F)cn2)C3)C1)C1(F)CC1 [compound 156]
IC50 [1]: < 100 nM
IC50 [2]: > 1000 nM
Papp A→B at 1 h, 10 μM [3]: 10 to 20 ×10⁻⁶ cm/s
MDR1 EER [4]: ++
MDR1 ER [4]: +
Papp A→B at 1 h, 10 μM [5]: > 20 ×10⁻⁶ cm/s
WT ER [6]: +++

CC(=O)N1Cc2cc(Cl)ccc2-n2c(nnc2C2CC3(C2)CN(c2cnccn2)C3)C1 [compound 93]
IC50 [1]: < 100 nM
IC50 [2]: > 1000 nM
Papp A→B at 1 h, 10 μM [3]: < 7 ×10⁻⁶ cm/s
MDR1 EER [4]: +
MDR1 ER [4]: +
Papp A→B at 1 h, 10 μM [5]: < 7 ×10⁻⁶ cm/s
WT ER [6]: +

O=C(C1CC1)N1Cc2cc(Cl)ccc2-n2c(nnc2C2CC3(C2)CN(c2ccc(F)cn2)C3)C1 [compound 74]
IC50 [1]: < 100 nM
IC50 [2]: > 1000 nM
Papp A→B at 1 h, 10 μM [3]: < 7 ×10⁻⁶ cm/s
MDR1 EER [4]: +
MDR1 ER [4]: +
Papp A→B at 1 h, 10 μM [5]: > 20 ×10⁻⁶ cm/s
WT ER [6]: +++

Clc1ccc2c(c1)CN(C1CC1)Cc1nnc(C3CC4(C3)CN(c3ncccn3)C4)n1-2 [compound 225]
IC50 [1]: < 100 nM
Papp A→B at 2 h [7]: > 20 ×10⁻⁶ cm/s

CC(=O)N1Cc2cc(Cl)ccc2-n2c(nnc2C2CC3(C2)CN(c2ccccn2)C3)C1 [compound 73]
IC50 [1]: < 100 nM
IC50 [2]: > 1000 nM
Papp A→B at 1 h, 10 μM [3]: < 7 ×10⁻⁶ cm/s
MDR1 EER [4]: +
MDR1 ER [4]: +
Papp A→B at 1 h, 10 μM [5]: 10 to 20 ×10⁻⁶ cm/s
WT ER [6]: +

COC(=O)N1Cc2cc(Cl)ccc2-n2c(nnc2C2CC3(C2)CN(c2ncc(F)cn2)C3)C1 [compound 92]
IC50 [1]: < 100 nM
IC50 [2]: > 1000 nM
Papp A→B at 1 h, 10 μM [3]: 7 to 10 ×10⁻⁶ cm/s
MDR1 EER [4]: +
MDR1 ER [4]: +
Papp A→B at 1 h, 10 μM [5]: > 20 ×10⁻⁶ cm/s
WT ER [6]: +++

Fc1cnc(N2CC3(CC(c4nnc5n4-c4ccc(Cl)cc4CN(C4CC4)C5)C3)C2)nc1 [compound 224]
IC50 [1]: < 100 nM
Papp A→B at 2 h [7]: > 20 ×10⁻⁶ cm/s

CC1c2nnc(C3CC4(C3)CN(c3ccc(F)cn3)C4)n2-c2ccc(Cl)cc2CN1C(=O)OC1CC(F)(F)C1 (stereo not shown) [compound 193, 3,3-difluorocyclobutyl 8-chloro-1-(2-(5-fluoropyridin-2-yl)-2-azaspiro[3.3]heptan-6-yl)-4-methyl-4H-benzo[f][1,2,4]triazolo[4,3-a][1,4]diazepine-5(6H)-carboxylate]
IC50 [1]: < 100 nM
IC50 [2]: > 1000 nM
Papp A→B at 1 h, 10 μM [3]: > 20 ×10⁻⁶ cm/s
MDR1 EER [4]: +++
MDR1 ER [4]: +++
Papp A→B at 1 h, 10 μM [5]: > 20 ×10⁻⁶ cm/s
WT ER [6]: +++

CCC(=O)N1Cc2cc(Cl)ccc2-n2c(nnc2C2CC3(C2)CN(c2cccc(C#N)n2)C3)C1 [compound 125]
IC50 [1]: < 100 nM
IC50 [2]: > 1000 nM
Papp A→B at 1 h, 10 μM [3]: < 7 ×10⁻⁶ cm/s
MDR1 EER [4]: +
MDR1 ER [4]: +
Papp A→B at 1 h, 10 μM [5]: > 20 ×10⁻⁶ cm/s
WT ER [6]: +++

O=C(C1CC1)N1CC2(CC(c3nnc4n3-c3ccc(Cl)cc3CN(C3CC3)C4)C2)C1 [compound 226, (6-(8-chloro-5-cyclopropyl-5,6-dihydro-4H-benzo[1,2,4]triazolo[4,3-a][1,4]diazepin-1-yl)-2-azaspiro[3.3]heptan-2-yl)(cyclopropyl)methanone]
Papp A→B at 2 h [7]: < 7 ×10⁻⁶ cm/s

Cc1nc(N2CC3(CC(c4nnc5n4-c4ccc(Cl)cc4CN(C4CC4)C5)C3)C2)ncc1F [compound 220]
IC50 [1]: < 100 nM
Papp A→B at 2 h [7]: > 20 ×10⁻⁶ cm/s

O=C(C(F)F)N1Cc2cc(Cl)ccc2-n2c(nnc2C2CC3(C2)CN(c2ccc(F)cn2)C3)C1 [compound 116]
IC50 [1]: < 100 nM
IC50 [2]: > 1000 nM
Papp A→B at 1 h, 10 μM [3]: < 7 ×10⁻⁶ cm/s
MDR1 EER [4]: +
MDR1 ER [4]: +
Papp A→B at 1 h, 10 μM [5]: > 20 ×10⁻⁶ cm/s
WT ER [6]: ++++

CC(=O)N1Cc2cc(Cl)ccc2-n2c(nnc2C2CC3(C2)CN(c2cccc(C#N)n2)C3)C1 [compound 94]
IC50 [1]: < 100 nM
IC50 [2]: > 1000 nM
Papp A→B at 1 h, 10 μM [3]: < 7 ×10⁻⁶ cm/s
MDR1 EER [4]: +
MDR1 ER [4]: +
Papp A→B at 1 h, 10 μM [5]: 10 to 20 ×10⁻⁶ cm/s
WT ER [6]: +

Cc1nc(N2CC3(CC(c4nnc5n4-c4ccc(Cl)cc4CN(C)C5)C3)C2)ccc1F [compound 242]
IC50 [1]: < 100 nM
Papp A→B at 2 h [7]: > 20 ×10⁻⁶ cm/s

CCC(=O)N1Cc2cc(Cl)ccc2-n2c(nnc2C2CC3(C2)CN(c2ncccn2)C3)C1 [compound 107, 1-(8-chloro-1-(2-(pyrimidin-2-yl)-2-azaspiro[3.3]heptan-6-yl)-4H-benzo[f][1,2,4]triazolo[4,3-a][1,4]diazepin-5(6H)-yl)propan-1-one]
IC50 [1]: < 100 nM
IC50 [2]: > 1000 nM
Papp A→B at 1 h, 10 μM [3]: < 7 ×10⁻⁶ cm/s
MDR1 EER [4]: +
MDR1 ER [4]: +
Papp A→B at 1 h, 10 μM [5]: 10 to 20 ×10⁻⁶ cm/s
WT ER [6]: +

O=C(C1CCC1)N1Cc2cc(Cl)ccc2-n2c(nnc2C2CC3(C2)CN(c2ccc(F)cn2)C3)C1 [compound 114]
IC50 [1]: < 100 nM
IC50 [2]: > 1000 nM
Papp A→B at 1 h, 10 μM [3]: < 7 ×10⁻⁶ cm/s
MDR1 EER [4]: +
MDR1 ER [4]: +
Papp A→B at 1 h, 10 μM [5]: < 7 ×10⁻⁶ cm/s
WT ER [6]: +

CCC(=O)N1Cc2cc(Cl)ccc2-n2c(nnc2C2CC3(C2)CN(c2cccc(F)n2)C3)C1 [compound 113]
IC50 [1]: < 100 nM
IC50 [2]: > 1000 nM
Papp A→B at 1 h, 10 μM [3]: < 7 ×10⁻⁶ cm/s
MDR1 EER [4]: +
MDR1 ER [4]: +
Papp A→B at 1 h, 10 μM [5]: > 20 ×10⁻⁶ cm/s
WT ER [6]: +++

Fc1ccc(N2CC3(CC(c4nnc5n4-c4ccc(Cl)cc4CN(CC(F)(F)F)C5)C3)C2)nc1 [compound 259, 8-chloro-1-(2-(5-fluoropyridin-2-yl)-2-azaspiro[3.3]heptan-6-yl)-5-(2,2,2-trifluoroethyl)-5,6-dihydro-4H-benzo[f][1,2,4]triazolo[4,3-a][1,4]diazepine]
IC50 [1]: < 100 nM
Papp A→B at 2 h [7]: > 20 ×10⁻⁶ cm/s

O=C(C1CC1)N1Cc2cc(Cl)ccc2-n2c(nnc2C2CC3(C2)CN(c2ccccn2)C3)C1 [compound 65]
IC50 [1]: < 100 nM
IC50 [2]: > 1000 nM
Papp A→B at 1 h, 10 μM [3]: < 7 ×10⁻⁶ cm/s
MDR1 EER [4]: +
MDR1 ER [4]: +
Papp A→B at 1 h, 10 μM [5]: > 20 ×10⁻⁶ cm/s
WT ER [6]: ++++

Cc1cccc(N2CC3(CC(c4nnc5n4-c4ccc(Cl)cc4CN(C4CC4)C5)C3)C2)n1 [compound 218]
IC50 [1]: < 100 nM
Papp A→B at 2 h [7]: > 20 ×10⁻⁶ cm/s

CCC(=O)N1Cc2cc(Cl)ccc2-n2c(nnc2C2CC3(C2)CN(C(=O)C2CC2)C3)C1 [compound 16]
IC50 [1]: < 100 nM
IC50 [2]: > 1000 nM
Papp A→B at 1 h, 10 μM [3]: < 7 ×10⁻⁶ cm/s
MDR1 EER [4]: ++
MDR1 ER [4]: +
Papp A→B at 1 h, 10 μM [5]: < 7 ×10⁻⁶ cm/s
WT ER [6]: +
